Measured values from patent US20140228407A1, “TETRA-PYRIDINE COMPOUNDS AND COMPOSITION FOR PROTECTING CELLS, TISSUES AND ORGANS AGAINST ISCHEMIA-REPERFUSION INJURY” (YISSUM RESEARCH DEVELOPMENT COMPANY OF THE HEBREW …, priority 2011, published 2014).

Tests used:
[1] = tested on: neonate rat cardiomyocyte cells; assay: Hypoxia/ischemia in neonatal rat cardiomyocyte cultures, LDH release; type: cell-based; details: 30, 100 and 300 nm compound vs 1 μM TPEN; 150 min ischemia then reoxygenation
Protocol: Rat hearts (1-2 days old) were sterilely removed and bathed three times in Ca^2+- and Mg^2+-free PBS to remove excess blood cells. The hearts were minced to small fragments and then agitated in a proteolytic enzyme-RDB solution prepared from a fig tree extract as described previously (Brik et al., 1990; Shneyvays et al., 2001). The RDB was diluted 1:200 in PBS at 25° C. for a few cycles of 10 min each. The supernatant suspension containing dissociated cells, to which medium containing 10% horse serum was added, was centrifuged at 500 g for 5 min. After centrifugation, the supernatant phase was discarded, and cells were resuspended in Dulbecco's modified Eagle medium supplemented with 10% heat-inactivated horse serum and 0.5% chick embryo extract. Cell suspensions were diluted to 1×10^6 cells/ml, and 300 μl was placed in 24 well plates (4 plates) collagen/gelatin-coated plastic culture dishes. Cultures were incubated in a humidified atmosphere of 5% CO2 and 95% air at 37° C. […] The growth medium was replaced every 3 days. The experiments were performed in vitro on these cardiomyocyte cultures after 3 to 5 days. […]
LDH activity was determined using LDH-L kit (Thermo Trace, Melbourne, Australia) within the cardiac cell medium (PBS). […] LDH enzymatic activity was measured in a spectrophotometer at a wavelength of 340 nm at 30° C. […]

PC12 cells = assay: PC12 ischemic model (oxygen and glucose deprivation), cell death by LDH measurement; type: cell-based; details: for protection percentile: protection from cell death, FIG. 6B: identical for both compounds
Protocol: PC12 cells were grown in 25 cm^2 flasks in Dulbecco's modified Eagles Medium (DMEM), supplemented with 7% fetal bovine serum (FBS), 7% horse serum, […] penicillin and 100 μg/ml streptomycin. Cells were grown in humidified incubator 5% CO2, 95% air at 37° C. The medium was replaced every 2 days, and upon 70% confluence, the cells were counted and seeded for the ischemia experiments.
Approximately 1×10^6 PC12 cells/well were cultured and exposed to ischemia (oxygen and glucose deprivation=OGD) for 4.5 hr. Prior to the exposure, the growth medium was replaced with glucose-free DMEM (1 ml/well). Ischemia was performed in a closed chamber by replacement of air with 95% nitrogen/5% CO2.
Ischemic stress injury was characterized by lactate dehydrogenase (LDH) released from cells. After 4.5 hr of ischemia, a 50 μl sample of supernatant was taken from each well for LDH measurement. At the end of the ischemic insult (after 4.5 hr), glucose (at final concentration of 4.5 g/L by adding 10 μl from stock solution of 450 mg/ml per well (1 ml)) was added to the plates which underwent ischemia. The plates were then transferred to a humidified incubator and exposed to 95% air/5% CO2 at 37° C. for additional 18 hr of reoxygenation. DMEM supernatant samples (25 μl/well) were collected from each well for LDH measurements. The samples were centrifuged at 3500 rpm for 5 min, and 5 μl aliquots of supernatant was taken for LDH measurement.
For every experiment, a duplicate plate was prepared as a control study under normoxia. Cells were kept in a humidified incubator (5% CO2 and 95% air at 37° C.) in cell culture complete medium at a volume of 1 ml for 18 hr, and the same compounds were added with the same concentrations. Supernatant was collected for LDH measurement as indicated in the LDH activity measurement section below. Afterwards (at the end of the reoxygenation phase), the plates were frozen (at −70° C. for 30 min) and thawed once. 25 μl/well sample was collected and the samples were centrifuged at 3500 rpm for 5 min and then taken for LDH measurement (total).
LDH activity was determined using LDH-L kit (Pointe Scientific Inc., Michigan, USA) in the PC12 cell medium. Medium samples (5 μl) were collected at the end of the ischemic insult (after 4.5 hr) and after the reoxygenation period. In parallel, samples from the plates exposed to normoxia were collected. LDH enzymatic activity was measured in a spectrophotometer at a wavelength of 340 nm at 37° C. Data analysis was performed as follows: [OD (cycle 3)−OD (cycle 1)experiment]−[OD(3)−OD(1) control])/[OD(3)−OD(1) total]×100, and presented as percentage of total cell death.
One day before the experiment, 12-well plates were coated with 200 μg/ml type I rat tail collagen (BD Biosciences, Bedford, Mass.) and were further sterilized under UV. 1×10^6 PC12 undifferentiated cells/well were seeded on the plates and allowed to adhere overnight under regular conditions (DMEM medium high glucose 4.5 mg/ml, 5% CO2 and 95% air at 37° C.). Each experiment included 4 plates, two for normoxia and two for ischemia which underwent the same following treatment for all 4 plates.
A half hour before the onset of the ischemic insult, the antioxidant Tempol (4-hydroxy-2,2,6,6-tetramethylpiperidine-1-oxyl) (Sigma, St. Louis, Mo.) at a concentration of 0.5 mM (10 μl/well taken from a 8.6 mg/ml stock solution) or TPEN at a concentration of 3 μM and 10 μM were added to the plates. Before the experiments, the medium was replaced with DMEM glucose free medium at 1 ml volume/well. TPEN or 10 μl Tempol were again added to the appropriate wells and was maintained throughout all experiments.
Thereafter, the plates were introduced into a device inducing ischemia atmosphere with 95% nitrogen and 5% CO2 for 4.5 hr. Oxygen level was monitored online by a digital oxygen monitor showing up to 1%. At the end of OGD, 25 μl from each well was collected into 0.5 ml tubes for the LDH assay. […]

Cc1ccc(CN(CCN(Cc2ccc(C)cn2)Cc2ccc(C)cn2)Cc2ccc(C)cn2)nc1 [Compound #6]
protective effect against hypoxic insult (LDH release) compared with TPEN, FIG. 1A [1]: significantly better protective outcome from hypoxia than TPEN
effectiveness relative to TPEN on PC12 cell death, FIG. 5 (PC12 cells; 1 μM vs 1 μM TPEN): 2 fold
protection of PC12 cells against ischemia insult-induced cell death vs TPEN at same concentration, FIG. 4 (PC12 cells; 1 μM vs 1 μM TPEN): significantly more potent then TPEN
protection of PC12 cells against ischemia insult-induced cell death vs 3 μM TPEN, FIG. 4 (PC12 cells; 1 μM vs 3 μM TPEN): more effective than 3 μM TPEN
effectiveness relative to the un-protected control group of cells, FIG. 5 (PC12 cells; 3 μM): 4 fold
effectiveness relative to TPEN on PC12 cell death, FIG. 5 (PC12 cells; 3 μM vs TPEN at the same concentration): 3 fold
protective effect on PC12 cell death, Compound #6 vs. Compound #4, FIG. 3 (PC12 cells; at similar concentrations (300 nM, 1 μM, 3 μM)): more effective than Compound #4
protection percentile: protection from cell death, FIG. 6B (PC12 cells; first of two selected concentrations (not given)): 29%
protection percentile: protection from cell death, FIG. 6B (PC12 cells; second of two selected concentrations (not given)): 63%
dose response function, attenuating cell death following ischemia-reperfusion, vs TPEN, FIG. 6A (PC12 cells; selected concentrations): superior to the latter
